From patent US6348468B1, “Pyridazine compounds and compositions containing the same” (Kowa Co., Ltd., priority 1997, dated 2002)

System: Interleukin-1β (IL-1β) Production
Assay: Inhibitory activity against interleukin-1β production (LPS-stimulated HL-60 cells, ELISA)
Format: cell-based
Settings: Homo sapiens, 72 h, lipopolysaccharide 10 μg/ml, culturing for 3 days
Procedure: HL-60 cells were cultured for 4 days until confluence on RPMI 1640 medium with 10% fetal bovine serum (FBS) added thereto. The HL-60 cells were centrifuged. The supernatant was discarded, and the cells were then suspended at 1×10^6 cells/ml on RPMI 1640 medium with 3% FBS, and lipopolysaccharide was added to give a final concentration of 10 μg/ml. The culture was inoculated at 1 ml/well to a 24-well plate. A test sample was added at 1 μl/well, followed by culturing for 3 days. Three days later, the amount of interleukin-1β in each of the cultures was measured by ELISA. Its IC50 value was determined by a comparison in yield with a control to which no test sample was added.

IC50 [nM] | Compound
> 100000 | COc1ccc(-c2cc(=O)n(CCN(C)C)nc2-c2ccc(OC)cc2)cc1 [Comp. Comp'd 3, reference compound]
31600 | COc1ccc(-c2cc(=O)[nH]nc2-c2ccc(OC)cc2)cc1 [Comp. Comp'd 4, reference compound]
100 | COc1ccc(-c2cc(=O)n(CC=Cc3ccc(Cl)cc3)nc2-c2ccc(OC)cc2)cc1 [Example 12, 5,6-bis(4-methoxyphenyl)-2-(4-chlorocinnamyl)-2H-pyridazin-3-one]
260 | COc1ccc(-c2cc(=O)n(Cc3ccccc3)nc2-c2ccc(OC)cc2)cc1 [Example 13, 5,6-bis(4-methoxyphenyl)-2-benzyl-2H-pyridazin-3-one]
94 | COc1ccc(Cn2nc(-c3ccc(OC)cc3)c(-c3ccc(OC)cc3)cc2=O)cc1 [Example 14, 5,6-bis(4-methoxyphenyl)-2-(4-methoxybenzyl)-2H-pyridazin-3-one]
230 | COc1ccc(-c2cc(=O)n(Cc3cc(OC)c(OC)c(OC)c3)nc2-c2ccc(OC)cc2)cc1 [Example 16, 5,6-bis(4-methoxyphenyl)-2-(3,4,5-trimethoxybenzyl)-2H-pyridazin-3-one]
79 | COc1ccc(-c2cc(=O)n(CCCc3ccccc3)nc2-c2ccc(OC)cc2)cc1 [Example 19, 5,6-bis(4-methoxyphenyl)-2-(3-phenylpropyl)-2H-pyridazin-3-one]
360 | COc1ccc(CCCn2nc(-c3ccc(OC)cc3)c(-c3ccc(OC)cc3)cc2=O)cc1 [Example 23, 5,6-bis(4-methoxyphenyl)-2-[3-(4-methoxyphenyl)propyl]-2H-pyridazin-3-one]
200 | COc1ccc(-c2cc(=O)n(CC=Cc3ccc(C)cc3)nc2-c2ccc(OC)cc2)cc1 [Example 24, 5,6-bis(4-methoxyphenyl)-2-(4-methylcinnamyl)-2H-pyridazin-3-one]
180 | COc1ccc(-c2cc(=O)n(CCCc3ccc(C)cc3)nc2-c2ccc(OC)cc2)cc1 [Example 25, 5,6-bis(4-methoxyphenyl)-2-[3-(4-methylphenyl)propyl]-2H-pyridazin-3-one]
150 | COc1ccc(-c2cc(=O)n(Cc3ccc(F)cc3)nc2-c2ccc(OC)cc2)cc1 [Example 26, 5,6-bis(4-methoxyphenyl)-2-(4-fluorobenzyl)-2H-pyridazin-3-one]
180 | COc1ccc(-c2cc(=O)n(Cc3ccc(F)cc3F)nc2-c2ccc(OC)cc2)cc1 [Example 27, 5,6-bis(4-methoxyphenyl)-2-(2,4-difluorobenzyl)-2H-pyridazin-3-one]
290 | COc1ccc(-c2cc(=O)n(Cc3ccc(OC)c(F)c3)nc2-c2ccc(OC)cc2)cc1 [Example 28, 5,6-bis(4-methoxyphenyl)-2-(3-fluoro-4-methoxybenzyl)-2H-pyridazin-3-one]
170 | COc1ccc(-c2cc(=O)n(CC=Cc3ccc(F)cc3)nc2-c2ccc(OC)cc2)cc1 [Example 30, 5,6-bis(4-methoxyphenyl)-2-(4-fluorocinnamyl)-2H-pyridazin-3-one]
95 | COc1ccc(-c2cc(=O)n(CC=Cc3ccc(F)cc3F)nc2-c2ccc(OC)cc2)cc1 [Example 31, 5,6-bis(4-methoxyphenyl)-2-(2,4-difluorocinnamyl)-2H-pyridazin-3-one]
210 | COc1ccc(-c2cc(=O)n(Cc3ccc(Cl)c(Cl)c3)nc2-c2ccc(OC)cc2)cc1 [Example 35, 5,6-bis(4-methoxyphenyl)-2-(3,4-dichlorobenzyl)-2H-pyridazin-3-one]
270 | COc1ccc(-c2cc(=O)n(CC=Cc3ccc(Cl)cc3Cl)nc2-c2ccc(OC)cc2)cc1 [Example 40, 5,6-bis(4-methoxyphenyl)-2-(2,4-dichlorocinnamyl)-2H-pyridazin-3-one]
250 | CSc1ccc(-c2nn(Cc3cccnc3)c(=O)cc2-c2ccc(Cl)cc2)cc1 [Example 55, 5-(4-chlorophenyl)-6-[4-(methylthio)phenyl]-2-(3-pyridylmethyl)-2H-pyridazin-3-one]
390 | COc1ccc(-c2nn(Cc3ccc(Cl)cc3)c(=O)cc2-c2ccncc2)cc1 [Example 78, 2-(4-chlorobenzyl)-6-(4-methoxyphenyl)-5-(4-pyridyl)-2H-pyridazin-3-one]
150 | COc1ccc(-c2cc(=S)n(Cc3ccc(F)cc3F)nc2-c2ccc(OC)cc2)cc1 [Example 126, 5,6-bis(4-methoxyphenyl)-2-(2,4-difluorobenzyl)-2H-pyridazine-3-thione]
310 | COc1ccc(-c2cc(=S)n(Cc3cccnc3)nc2-c2ccc(OC)cc2)cc1 [Example 128, 5,6-bis(4-methoxyphenyl)-2-(3-pyridylmethyl)-2H-pyridazine-3-thione]
390 | CSc1ccc(-c2nn(Cc3cccnc3)c(=S)cc2-c2ccc(Cl)cc2)cc1 [Example 135, 5-(4-chlorophenyl)-6-[4-(methylthio)phenyl]-2-(3-pyridylmethyl)-2H-pyridazine-3-thione]

System: not given
Assay: not given
Settings: not given

melting point [°C] | Compound
154 to 154.2 | CSc1ccc(-c2nn(Cc3ccc(Cl)cc3Cl)c(=S)cc2-c2ccc(F)cc2)cc1 [Example 141, 2-(2,4-dichlorobenzyl)-5-(4-fluorophenyl)-6-[4-(methylthio)phenyl]-2H-pyridazine-3-thione]
136.6 to 137.8 | COc1ccc(-c2cc(=O)n(Cc3ccccc3)nc2-c2ccc(OC)c(F)c2)cc1 [Example 144, 2-benzyl-6-(3-fluoro-4-methoxyphenyl)-5-(4-methoxyphenyl)-2H-pyridazin-3-one]
144 to 145.4 | COc1ccc(-c2cc(=O)n(CC=Cc3ccc(Cl)cc3)nc2-c2ccc(OC)c(F)c2)cc1 [Example 145, 2-(4-chlorocinnamyl)-6-(3-fluoro-4-methoxyphenyl)-5-(4-methoxyphenyl)-2H-pyridazin-3-one]
122.6 to 123.5 | CCn1nc(-c2ccc(OC)c(F)c2)c(-c2ccc(OC)cc2)cc1=O [Example 146, 2-ethyl-6-(3-fluoro-4-methoxyphenyl)-5-(4-methoxyphenyl)-2H-pyridazin-3-one]
86.8 to 87.4 | COc1ccc(-c2cc(=O)n(CC(C)C)nc2-c2ccc(OC)c(F)c2)cc1 [Example 147, 6-(3-fluoro-4-methoxyphenyl)-2-isobutyl-5-(4-methoxyphenyl)-2H-pyridazin-3-one]
132.2 to 132.6 | COc1ccc(-c2cc(=O)n(CC3CC3)nc2-c2ccc(OC)c(F)c2)cc1 [Example 148, 2-cyclopropylmethyl-6-(3-fluoro-4-methoxyphenyl)-5-(4-methoxyphenyl)-2H-pyridazin-3-one]
171.2 to 173.4 | COc1ccc(C2=NNC(=O)CC2c2ccc(OC)c(F)c2)cc1 (centres unmarked) [Example 149, 4,5-dihydro-5-(3-fluoro-4-methoxyphenyl)-6-(4-methoxyphenyl)-2H-pyridazin-3-one]
212.8 to 213.4 | COc1ccc(-c2n[nH]c(=O)cc2-c2ccc(OC)c(F)c2)cc1 [Example 150, 5-(3-fluoro-4-methoxyphenyl)-6-(4-methoxyphenyl)-2H-pyridazin-3-one]
109.6 to 111.6 | COc1ccc(-c2nn(Cc3ccccc3)c(=O)cc2-c2ccc(OC)c(F)c2)cc1 [Example 151, 2-benzyl-5-(3-fluoro-4-methoxyphenyl)-6-(4-methoxyphenyl)-2H-pyridazin-3-one]
109.2 to 111 | COc1ccc(-c2nn(CC=Cc3ccc(Cl)cc3)c(=O)cc2-c2ccc(OC)c(F)c2)cc1 [Example 152, 2-(4-chlorocinnamyl)-5-(3-fluoro-4-methoxyphenyl)-6-(4-methoxyphenyl)-2H-pyridazin-3-one]
161.7 to 162.2 | CCn1nc(-c2ccc(OC)cc2)c(-c2ccc(OC)c(F)c2)cc1=O [Example 153, 2-ethyl-5-(3-fluoro-4-methoxyphenyl)-6-(4-methoxyphenyl)-2H-pyridazin-3-one]
124.6 to 125 | COc1ccc(-c2nn(CC(C)C)c(=O)cc2-c2ccc(OC)c(F)c2)cc1 [Example 154, 5-(3-fluoro-4-methoxyphenyl)-2-isobutyl-6-(4-methoxyphenyl)-2H-pyridazin-3-one]
135.2 to 135.7 | COc1ccc(-c2nn(CC3CC3)c(=O)cc2-c2ccc(OC)c(F)c2)cc1 [Example 155, 2-cyclopropylmethyl-5-(3-fluoro-4-methoxyphenyl)-6-(4-methoxyphenyl)-2H-pyridazin-3-one]
195.7 to 197.7 | COc1ccc(C2=NNC(=O)CC2c2ccc(OC)c(F)c2)cc1F (centres unmarked) [Example 156, 5,6-bis(3-fluoro-4-methoxyphenyl)-4,5-dihydro-2H-pyridazin-3-one]
204.8 to 205.7 | COc1ccc(-c2cc(=O)[nH]nc2-c2ccc(OC)c(F)c2)cc1F [Example 157, 5,6-bis(3-fluoro-4-methoxyphenyl)-2H-pyridazin-3-one]
114.1 to 115.2 | COc1ccc(-c2cc(=O)n(Cc3ccccc3)nc2-c2ccc(OC)c(F)c2)cc1F [Example 158, 2-benzyl-5,6-bis(3-fluoro-4-methoxyphenyl)-2H-pyridazin-3-one]
72.5 to 74.9 | COc1ccc(-c2cc(=O)n(CC=Cc3ccc(Cl)cc3)nc2-c2ccc(OC)c(F)c2)cc1F [Example 159, 5,6-bis(3-fluoro-4-methoxyphenyl)-2-(4-chlorocinnamyl)-2H-pyridazin-3-one]
154 to 154.5 | COc1ccc(-c2cc(=O)n(CC(C)C)nc2-c2ccc(OC)c(F)c2)cc1F [Example 161, 5,6-bis(3-fluoro-4-methoxyphenyl)-2-isobutyl-2H-pyridazin-3-one]
142.3 to 142.7 | COc1ccc(-c2cc(=O)n(CC3CC3)nc2-c2ccc(OC)c(F)c2)cc1F [Example 162, 5,6-bis(3-fluoro-4-methoxyphenyl)-2-cyclopropylmethyl-2H-pyridazin-3-one]
